# According to US20140051729A1, “COMPOSITIONS AND METHODS FOR TREATING DEGENERATIVE MUSCLE CONDITIONS” (University of Washington, priority 2011, published 2014):
# Experiments:
# [1] = system: Dystrophic mutant flies (TubGal4:UAS-Dys^C-RNAi/+); assay: Myofibril Projectin immunohistochemistry in dystrophic flies after oral THI; assay type: in vivo, Drosophila melanogaster; conditions: 3 days once-daily oral THI, myofibrils from 10 day old flies
# Experimental: In mice, the genetic reduction of S1P lyase activity can be phenocopied pharmacologically by the delivery of the small molecule 1-[5-[(1R,2S,3R)-1,2,3,4-tetrahydroxybutyl]-1H-imidazol-2-yl]-ethanone (THI), which inhibits the activity of S1P lyase. Dystrophic mutant flies were administered THI to investigate possible THI suppression of the muscle degeneration phenotype.
# Flies were dipped in 95% EtOH and then dissected in 1×PBS (pH 7.4). Heads and abdomens were removed, and the thoraxes opened. Samples were stained using a modified ovary staining protocol 3. Samples were then fixed in 5% paraformaldehyde (Electron Microscopy Sciences) for 1 hour, rinsed in PBT (PBS/0.2% Triton X-100 v/v) 4 times, and then blocked for 1 hour in PBTB (PBT, 0.4% BSA w/v, 5% Normal Goat Serum v/v) at room temperature. Samples were stained in primary antibody pre-diluted in PBTB (Phalloidin-Alexa-Fluor 568, Invitrogen [mouse, 1:200]; Projectin (Mac150), Babraham Institute [rat, 1:50]) overnight at 4° C., rinsed in PBT 4 times at room temperature (RT), and then stained with secondary antibody pre-diluted in PBTB (Alexa Fluor 488 [mouse, 1:500]) overnight at 4° C. […] For each genotype, 4-5 flies were analyzed, and 6-7 muscles per fly were analyzed. […]
# [2] = system: plasma creatine kinase (CK) activity; assay: Plasma creatine kinase assay in mdx mice; assay type: in vivo, mouse; conditions: 5-month-old mdx males, day 4 post CTX, vs vehicle
# Experimental: The effects of THI in the dystrophic mdx mouse model were studied. […] THI was administered intraperitoneally (IP) to three groups of mdx mice. Right tibialis anterior (TA) and quadriceps muscles were uninjured, while left counterparts were injured using CTX, a well characterized model of acute injury where initial muscle destruction is followed by a rapid myogenic response. The mdx mice were injected with THI, or PBS as a vehicle control, immediately following injury with CTX 5 times during a 3-day period (FIG. 3a). In the first group (N=6, 5-month-old males) the mdx mice were sacrificed at day 4 to analyze the efficacy of the administration of THI for increasing S1P levels in spleen, CTX injured quadriceps, and uninjured quadriceps. The effects of THI administration on the plasma creatine kinase (CK) activity level was also measured.
# Mdx mouse plasma samples were diluted 1:50 and total creatine kinsase activity was measured by an enzymatic rate method using a Beckman Coulter instrument. Relative levels were then normalized to body weight.
# [3] = system: dystrophic flies (w; +/+; Dys^det1/Dys^det1); assay: Myofibril analysis of muscle wasting in dystrophic flies fed S1P promoting agents; assay type: in vivo, Drosophila; conditions: 217 μM in feed, three feeding cycles, 10-day old flies, three days after last feeding
# Experimental: The effect of THI, a derivative of THI ((E)-1-(4-((1R,2S,3R)-1,2,3,4-tetrahydroxybutyl)-1H-imidazol-2-yl)-ethanone oxime) (“THI-oxime”), and a sphingosine analog (FTY720) on muscle wasting in dystrophic Drosopila flies was observed. Before feeding, 4 day old dystrophic flies (genotype: w; +/+; Dys^det1/Dys^det1) were placed in empty vials and starved for 6 hours. The flies were then provided access to one of a solution of 0.05 mg/mL (217 μM) 2-Acetyl-4(5)-tetrahydroxybutyl Imidazole (THI), or 217 μM FTY720, or 217 μM THI-oxime, in 5% light corn syrup in water for 16-18 hrs. After feeding, the flies were placed in new yeasted vials for 6-7 hrs. Flies were then transferred to empty vials with access to a 217 μM solution of THI, FTY720 or THI-oxime in a 5% light corn syrup in water for 16-18 hrs. This feeding cycle was repeated for a third time. After feeding for three cycles, the flies were placed in new yeasted vials. The 7-day old flies that had been administered the THI-oxime were analyzed immediately after the last feeding. The flies that has been administered THI and FTY720 were analyzed as 10-day old flies, three days after the last feeding with THI and FTY720.
# Myofibril immunochemistry analysis was performed as disclosed herein. For each treatment group, 5 flies were analyzed, and 3 muscles per fly and 2 myofibrils per muscle were analyzed. Two tailed Student's t test was used to evaluate significance.
# Flies were dipped in 95% EtOH and then dissected in 1×PBS (pH 7.4). Heads and abdomens were removed, and the thoraxes opened. Samples were stained using a modified ovary staining protocol 3. Samples were then fixed in 5% paraformaldehyde (Electron Microscopy Sciences) for 1 hour, rinsed in PBT (PBS/0.2% Triton X-100 v/v) 4 times, and then blocked for 1 hour in PBTB (PBT, 0.4% BSA w/v, 5% Normal Goat Serum v/v) at room temperature. […] For each genotype, 4-5 flies were analyzed, and 6-7 muscles per fly were analyzed.
# SPL = molecular target: T1, SPL (Mus musculus, UniProt Q8R0X7); conditions: Schwab et al., Science 2005; cited from earlier work
# T1 construct: host or cells: mice (in vivo)
# T1 sequence (Q8R0X7 1-568): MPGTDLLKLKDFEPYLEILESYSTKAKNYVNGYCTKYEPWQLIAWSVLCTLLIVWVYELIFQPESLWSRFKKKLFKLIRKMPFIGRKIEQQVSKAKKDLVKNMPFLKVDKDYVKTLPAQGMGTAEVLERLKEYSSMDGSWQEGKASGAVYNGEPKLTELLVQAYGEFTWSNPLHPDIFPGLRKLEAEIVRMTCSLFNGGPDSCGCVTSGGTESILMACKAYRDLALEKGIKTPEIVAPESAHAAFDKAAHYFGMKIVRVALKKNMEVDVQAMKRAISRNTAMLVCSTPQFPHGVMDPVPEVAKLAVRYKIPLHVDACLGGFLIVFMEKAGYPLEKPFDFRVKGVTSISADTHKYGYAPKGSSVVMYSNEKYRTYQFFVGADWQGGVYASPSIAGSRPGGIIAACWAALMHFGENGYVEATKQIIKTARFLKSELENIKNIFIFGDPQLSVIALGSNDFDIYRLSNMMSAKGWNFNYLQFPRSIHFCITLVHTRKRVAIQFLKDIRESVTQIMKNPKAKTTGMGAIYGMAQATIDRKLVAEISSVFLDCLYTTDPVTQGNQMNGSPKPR
structure (smiles),measurement,setting,value
"CC(=O)c1ncc([C@@H](O)[C@H](O)[C@H](O)CO)[nH]1 [THI, 1-[5-[(1R,2S,3R)-1,2,3,4-tetrahydroxybutyl]-1H-imidazol-2-yl]-ethanone]",suppression of muscle wasting (myofibrils),[1],significant suppression of muscle wasting
same,plasma CK levels,[2],reduced
same,wild-type myofibrils,[3],approximately 67%
same,SPL activity when administered to mice,SPL,inhibits SPL activity
